Patent publication US9850283B2, “Macrocyclic inhibitors of the PD-1/PD-L1 and CD80(B7-1)/PD-L1 protein/protein interactions” (BRISTOL-MYERS SQUIBB COMPANY, priority 2013, dated 2017)
Read-outs that look alike come from different tables or passages of the source. Positions of bridges follow the written chain, without caps; N, C: chain ends. Non-standard residues stand in square brackets, D forms with d. Residues, ends and D or L forms follow the SMILES beside them. Phe(3,4,5-F3) = N[C@@H](Cc1cc(F)c(F)c(F)c1)C(=O)O; Phe(3,4-(OMe)2) = COc1ccc(C[C@H](N)C(=O)O)cc1OC; Trp(5-OH) = N[C@@H](Cc1c[nH]c2ccc(O)cc12)C(=O)O; Phe(4-tBu) = CC(C)(C)c1ccc(C[C@H](N)C(=O)O)cc1; Phe(4-F) = N[C@@H](Cc1ccc(F)cc1)C(=O)O; Pro(4R-NH2) = N[C@H]1CN[C@H](C(=O)O)C1; d(cisHyp) = O=C(O)[C@H]1C[C@@H](O)CN1; Bta = N[C@@H](Cc1csc2ccccc12)C(=O)O; cisHyp = O=C(O)[C@@H]1C[C@H](O)CN1; Hyp = O=C(O)[C@@H]1C[C@@H](O)CN1; NMeF = CN[C@@H](Cc1ccccc1)C(=O)O; NMeNle = CCCC[C@H](NC)C(=O)O; NMeS = CN[C@@H](CO)C(=O)O; NMeA = CN[C@@H](C)C(=O)O; Orn = NCCC[C@H](N)C(=O)O; Dab = NCC[C@H](N)C(=O)O; dAze = O=C(O)[C@H]1CCN1; Dap = NC[C@H](N)C(=O)O; Sar = CNCC(=O)O

Experiments:
Human PD-L1/PD-1 = biological target: T1, Human PD-L1/PD-1 (Homo sapiens, UniProt Q9NZQ7); assay: HTRF PD-1-Ig/PD-L1-His binding assay (human PD-L1)
T1 construct: made in house; host or cells: HEK293T
T1 sequence (Q9NZQ7 with tags, fused parts or gaps): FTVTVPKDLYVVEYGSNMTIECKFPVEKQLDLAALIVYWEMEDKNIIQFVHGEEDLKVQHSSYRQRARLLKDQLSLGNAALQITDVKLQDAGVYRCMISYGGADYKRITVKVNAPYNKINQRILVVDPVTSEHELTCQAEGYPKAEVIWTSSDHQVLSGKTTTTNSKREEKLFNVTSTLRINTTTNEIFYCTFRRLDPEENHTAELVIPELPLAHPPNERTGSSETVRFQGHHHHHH
Method in brief: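 Soluble Fc-fused PD-1 and His-tagged PD-L1 (truncated before the transmembrane region) were combined in dPBS with 0.1% (w/v) BSA and 0.05% (v/v) Tween-20. Binding was read by HTRF using europium cryptate anti-Ig antibody (1 nM final) and APC anti-His antibody (20 nM final).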

[1] = biological target: T2, LK35.2-hPD-L1 cells / PE-labeled PD-1-Ig (Homo sapiens, UniProt Q9NZQ7); assay: LK35.2-hPD-L1 cell binding high-content screening assay; assay type: cell-based
T2 construct: expressed in transfected cells; host or cells: LK35.2 mouse B cell line
T2 sequence (Q9NZQ7 19-290): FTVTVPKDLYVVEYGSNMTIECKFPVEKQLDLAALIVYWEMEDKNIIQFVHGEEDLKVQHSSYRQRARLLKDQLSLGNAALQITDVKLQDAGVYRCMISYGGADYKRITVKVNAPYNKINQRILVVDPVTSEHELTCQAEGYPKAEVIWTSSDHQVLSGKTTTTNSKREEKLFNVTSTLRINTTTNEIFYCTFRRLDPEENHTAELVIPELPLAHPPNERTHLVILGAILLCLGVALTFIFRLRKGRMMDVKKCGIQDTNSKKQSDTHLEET
Method in brief: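 Readout: high-content imaging of PE-PD-1-Ig bound to LK35.2-hPD-L1 cells. Cells plated overnight (RPMI/10% FCS); compound + 1 nM PE-PD-1-Ig, 1 h, 37 °C; 3× dPBS wash before imaging.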

[2] = cluster symbol, read-out: HTRF IC50 cluster
[3] = cluster symbol, cell line of CBA not given (LK35.2-hPD-L1 or 293T-hPD-L1), read-out: CBA IC50 cluster
[4] = cell binding assay, cell line not given, cluster symbol, read-out: CBA IC50 cluster

CCCC[C@H]1C(=O)N(C)[C@@H](CCCC)C(=O)N[C@@H](CCCN)C(=O)N[C@H](C(=O)NCC(N)=O)CSCC(=O)N[C@@H](Cc2ccc(O)cc2)C(=O)N(C)[C@@H](C)C(=O)N[C@@H](CC(N)=O)C(=O)N2CCC[C@H]2C(=O)N[C@@H](CN)C(=O)N[C@@H](CC(C)C)C(=O)N2C[C@@H](O)C[C@H]2C(=O)N[C@@H](Cc2c[nH]c3ccccc23)C(=O)N[C@@H](CO)C(=O)N[C@@H](Cc2c[nH]c3ccccc23)C(=O)N1C [Example 1145] ({CH2CO}-Y[NMeA]NP[Dap]L[cisHyp]WSW[NMeNle][NMeNle][Orn]CG-NH2; thioether N-14)
IC50 (Human PD-L1/PD-1; [2]): 6.76 to 30.3 nM
IC50 [1, 3]: 0.158 to 4.71 nM

CCCC[C@H]1C(=O)N2C[C@H](O)C[C@@H]2C(=O)N2C[C@H](N)C[C@H]2C(=O)N[C@@H](C(C)C)C(=O)N(C)[C@@H](Cc2ccccc2)C(=O)N[C@@H](Cc2ccc(O)cc2)C(=O)N2CC[C@@H]2C(=O)N[C@@H](Cc2c[nH]c3ccccc23)C(=O)N[C@@H](Cc2ccc(O)cc2)C(=O)N[C@@H](CC(C)C)C(=O)N[C@H](C(=O)NCC(N)=O)CSCC(=O)N[C@@H](Cc2cc(F)c(F)c(F)c2)C(=O)N(C)[C@@H](Cc2ccccc2)C(=O)N1C [Example 3195] ({CH2CO}-[Phe(3,4,5-F3)][NMeF][NMeNle][d(cisHyp)][Pro(4R-NH2)]V[NMeF]Y[dAze]WYLCG-NH2; thioether N-13)
IC50 (Human PD-L1/PD-1; [2]): 0.385 to 6.74 nM
IC50 [1, 3]: 0.158 to 4.71 nM

CCCC[C@H]1C(=O)N(C)[C@@H](CCCC)C(=O)N[C@@H](CCCNC(=N)N)C(=O)N[C@H](C(=O)NCC(N)=O)CSCC(=O)N[C@@H](Cc2ccccc2)C(=O)N(C)[C@@H](C)C(=O)N[C@@H](CC(N)=O)C(=O)N2CCC[C@H]2C(=O)N[C@@H](Cc2cnc[nH]2)C(=O)N[C@@H](CC(C)C)C(=O)N[C@@H](CCC(N)=O)C(=O)N[C@@H](Cc2c[nH]c3ccccc23)C(=O)N[C@@H](CO)C(=O)N[C@@H](Cc2c[nH]c3ccccc23)C(=O)N1C [Example 1074] ({CH2CO}-F[NMeA]NPHLQWSW[NMeNle][NMeNle]RCG-NH2; thioether N-14)
IC50 (Human PD-L1/PD-1; [2]): > 30.5 nM
IC50 [1, 3]: > 74.3 nM

CCCC[C@H]1C(=O)N(C)CC(=O)N[C@@H](CC(=O)O)C(=O)N[C@@H](C(C)C)C(=O)N(C)[C@@H](Cc2ccccc2)C(=O)N[C@@H](Cc2c[nH]c3ccc(O)cc23)C(=O)N(C)CC(=O)N[C@@H](Cc2c[nH]c3ccccc23)C(=O)N[C@@H](Cc2ccc(O)cc2)C(=O)N[C@@H](CC(C)C)C(=O)N[C@H](C(=O)NCC(N)=O)CSCC(=O)N[C@@H](Cc2ccccc2)C(=O)N(C)[C@@H](Cc2ccccc2)C(=O)N1C [Example 3148] ({CH2CO}-F[NMeF][NMeNle][Sar]DV[NMeF][Trp(5-OH)][Sar]WYLCG-NH2; thioether N-13)
IC50 (Human PD-L1/PD-1; [2]): 6.76 to 30.3 nM
IC50 [1, 3]: 4.78 to 72.9 nM

CCCC[C@H]1C(=O)N(C)[C@@H](CCCC)C(=O)N[C@@H](CO)C(=O)N[C@H](C(=O)NCC(N)=O)CSCC(=O)N[C@@H](Cc2ccc(O)cc2)C(=O)N(C)[C@@H](C)C(=O)N[C@@H](CCN)C(=O)N2CCC[C@H]2C(=O)N[C@@H](CO)C(=O)N[C@@H](CCC(=O)O)C(=O)N2C[C@H](O)C[C@H]2C(=O)N[C@@H](Cc2c[nH]c3ccccc23)C(=O)N[C@@H](CO)C(=O)N[C@@H](Cc2c[nH]c3ccccc23)C(=O)N1C [Example 5119] ({CH2CO}-Y[NMeA][Dab]PSE[Hyp]WSW[NMeNle][NMeNle]SCG-NH2; thioether N-14)
IC50 (Human PD-L1/PD-1; [2]): 0.385 to 6.74 nM
IC50 [1, 4]: 4.78 to 72.9 nM

CCCC[C@H]1C(=O)N(C)[C@@H](CCCC)C(=O)N[C@@H](CCCNC(=N)N)C(=O)N[C@H](C(=O)NCC(N)=O)CSCC(=O)N[C@@H](Cc2ccccc2)C(=O)N(C)[C@@H](C)C(=O)N[C@@H](CC(N)=O)C(=O)N2CCC[C@H]2C(=O)N[C@@H](Cc2cnc[nH]2)C(=O)N[C@@H](CC(C)C)C(=O)N(C)CC(=O)N[C@@H](Cc2ccc(OC)c(OC)c2)C(=O)N[C@@H](CO)C(=O)N[C@@H](Cc2c[nH]c3ccccc23)C(=O)N1C [Example 1080] ({CH2CO}-F[NMeA]NPHL[Sar][Phe(3,4-(OMe)2)]SW[NMeNle][NMeNle]RCG-NH2; thioether N-14)
IC50 (Human PD-L1/PD-1; [2]): > 30.5 nM
IC50 [1, 3]: > 74.3 nM

CC[C@H](C)[C@H]1C(=O)N(C)CC(=O)N[C@@H](CC(=O)O)C(=O)N[C@@H](C(C)C)C(=O)N(C)[C@@H](Cc2ccccc2)C(=O)N[C@@H](Cc2ccc(O)cc2)C(=O)N(C)CC(=O)N[C@@H](Cc2c[nH]c3ccccc23)C(=O)N[C@@H](Cc2ccc(O)cc2)C(=O)N[C@@H](CC(C)C)C(=O)N[C@H](C(=O)NCC(N)=O)CSCC(=O)N[C@@H](Cc2ccccc2)C(=O)N(C)[C@@H](Cc2ccccc2)C(=O)N1C [Example 3142] (HELM PEPTIDE1{[O=C(C[*:3])[*:2]].F.[meF].[meI].[Sar].D.V.[meF].Y.[Sar].W.Y.L.C.G.[am]}$PEPTIDE1,PEPTIDE1,1:R3-14:R3$$$V2.0)
IC50 (Human PD-L1/PD-1; [2]): 6.76 to 30.3 nM
IC50 [1, 3]: 4.78 to 72.9 nM

CCCC[C@H]1C(=O)N(C)CC(=O)N[C@@H](CC(=O)O)C(=O)N[C@@H](C(C)C)C(=O)N(C)[C@@H](Cc2ccccc2)C(=O)N[C@@H](Cc2ccc(O)cc2)C(=O)N(C)CC(=O)N[C@@H](Cc2c[nH]c3ccc(O)cc23)C(=O)N[C@@H](Cc2ccc(O)cc2)C(=O)N[C@@H](CC(C)C)C(=O)N[C@H](C(=O)NCC(N)=O)CSCC(=O)N[C@@H](Cc2ccccc2)C(=O)N(C)[C@@H](Cc2ccccc2)C(=O)N1C [Example 3147] ({CH2CO}-F[NMeF][NMeNle][Sar]DV[NMeF]Y[Sar][Trp(5-OH)]YLCG-NH2; thioether N-13)
IC50 (Human PD-L1/PD-1; read-out: HTRF IC50 value): 750 nM
IC50 ([1]; cell line of CBA not given (LK35.2-hPD-L1 or 293T-hPD-L1), read-out: CBA IC50 value): 1730 nM

CCCC[C@H]1C(=O)N(C)[C@@H](CCCC)C(=O)N[C@@H](CCCNC(=N)N)C(=O)N[C@H](C(=O)NCC(N)=O)CSCC(=O)N[C@@H](Cc2ccccc2)C(=O)N(C)[C@@H](C)C(=O)N[C@@H](CC(N)=O)C(=O)N2CCC[C@H]2C(=O)N[C@@H](Cc2cnc[nH]2)C(=O)N[C@@H](CC(C)C)C(=O)N(C)CC(=O)N[C@@H](Cc2c[nH]c3ccccc23)C(=O)N(C)[C@@H](CO)C(=O)N[C@@H](Cc2c[nH]c3ccccc23)C(=O)N1C [Example 1078] ({CH2CO}-F[NMeA]NPHL[Sar]W[NMeS]W[NMeNle][NMeNle]RCG-NH2; thioether N-14)
IC50 (Human PD-L1/PD-1; [2]): > 30.5 nM
IC50 [1, 3]: > 74.3 nM

CCCC[C@H]1C(=O)N(C)[C@@H](CCCC)C(=O)N[C@@H](CCCNC(=N)N)C(=O)N[C@H](C(=O)NCC(N)=O)CSCC(=O)N[C@@H](Cc2ccc(F)cc2)C(=O)N(C)[C@@H](C)C(=O)N[C@@H](CC(N)=O)C(=O)N2CCC[C@H]2C(=O)N[C@@H](Cc2cnc[nH]2)C(=O)N[C@@H](CC(C)C)C(=O)N2C[C@H](O)C[C@H]2C(=O)N[C@@H](Cc2c[nH]c3ccccc23)C(=O)N[C@@H](CO)C(=O)N[C@@H](Cc2c[nH]c3ccccc23)C(=O)N1C [Example 7047] ({CH2CO}-[Phe(4-F)][NMeA]NPHL[Hyp]WSW[NMeNle][NMeNle]RCG-NH2; thioether N-14)
IC50 (Human PD-L1/PD-1; [2]): 0.385 to 6.74 nM
IC50 [1, 4]: 4.78 to 72.9 nM

CCCC[C@H]1C(=O)N(C)[C@@H](CCCC)C(=O)N[C@@H](CN)C(=O)N[C@H](C(=O)NCC(N)=O)CSCC(=O)N[C@@H](Cc2ccc(O)cc2)C(=O)N(C)[C@@H](C)C(=O)N[C@@H](CC(N)=O)C(=O)N2CCC[C@H]2C(=O)N[C@@H](CN)C(=O)N[C@@H](CCC(=O)O)C(=O)N2C[C@H](O)C[C@H]2C(=O)N[C@@H](Cc2c[nH]c3ccccc23)C(=O)N[C@@H](CO)C(=O)N[C@@H](Cc2csc3ccccc23)C(=O)N1C [Example 1162] ({CH2CO}-Y[NMeA]NP[Dap]E[Hyp]WS[Bta][NMeNle][NMeNle][Dap]CG-NH2; thioether N-14)
IC50 (Human PD-L1/PD-1; [2]): 0.385 to 6.74 nM
IC50 [1, 3]: 0.158 to 4.71 nM

CCCC[C@H]1C(=O)N(C)[C@@H](CCCC)C(=O)N[C@@H](CCCNC(=N)N)C(=O)N[C@H](C(=O)NCC(N)=O)CSCC(=O)N[C@@H](Cc2ccc(C(C)(C)C)cc2)C(=O)N(C)[C@@H](C)C(=O)N[C@@H](CC(N)=O)C(=O)N2CCC[C@H]2C(=O)N[C@@H](Cc2cnc[nH]2)C(=O)N[C@@H](CC(C)C)C(=O)N2C[C@H](O)C[C@H]2C(=O)N[C@@H](Cc2c[nH]c3ccccc23)C(=O)N[C@@H](CO)C(=O)N[C@@H](Cc2c[nH]c3ccccc23)C(=O)N1C [Example 7045] ({CH2CO}-[Phe(4-tBu)][NMeA]NPHL[Hyp]WSW[NMeNle][NMeNle]RCG-NH2; thioether N-14)
IC50 (Human PD-L1/PD-1; [2]): > 30.5 nM
IC50 [1, 4]: > 74.3 nM

CCCC[C@H]1C(=O)N(C)CC(=O)N[C@@H](CC(=O)O)C(=O)N[C@@H](C(C)C)C(=O)N(C)[C@@H](Cc2ccccc2)C(=O)N[C@@H](Cc2ccc(O)cc2)C(=O)N(C)CC(=O)N[C@@H](Cc2c[nH]c3ccccc23)C(=O)N[C@@H](Cc2ccc(O)cc2)C(=O)N[C@@H](CC(C)C)C(=O)N[C@H](C(=O)NCC(N)=O)C(C)(C)SCC(=O)N[C@@H](Cc2ccccc2)C(=O)N(C)[C@@H](Cc2ccccc2)C(=O)N1C [Example 3087] (HELM PEPTIDE1{[O=C(C[*:3])[*:2]].F.[meF].[CCCC[C@@H](C(=O)[*:2])N(C)[*:1]].[Sar].D.V.[meF].Y.[Sar].W.Y.L.[Pen].G.[am]}$PEPTIDE1,PEPTIDE1,1:R3-14:R3$$$V2.0)
IC50 (Human PD-L1/PD-1; [2]): > 30.5 nM
IC50 [1, 3]: > 74.3 nM
